Measured values: patent US9511070B2, “Heterocyclyl carboxamides for treating viral diseases” (NOVADRUG, LLC, priority 2012, dated 2016)

System: JFH-1 HCV
Settings: relative to mock-treated HCV infected control; doses in μM
Excerpt: In vitro assay for anti-HCV efficacy. HCV studies typically involve infected patients and chimpanzees. However, recently, a robust HCV infection system was developed with cells derived from the Huh-7 human hepatoma cell line. It is based on the unique JFH-1 HCV consensus cDNA derived from an HCV patient. Using reverse genetics, the infectious virus can be rescued from this HCV clone. The recovered viable JFH virus can be passaged serially in Huh-7 cells. For this reason, this system is amenable for evaluating the activity of test compound for their anti-HCV efficacy.
Briefly, 6×10^3 Huh7-1 cells are incubated overnight in each well of collagen-coated BioCoat 96-well plates (BD Biosciences, Bedford, Mass.) in 0.2 ml 10% medium composed of Dulbecco's modified Eagle's medium supplemented with 10% fetal bovine serum. Subsequently, at 2 day intervals, the cultures are replenished with fresh 0.2 ml 10% medium. After the cultures become confluent, they continue to be replenished at 2 day intervals with fresh 0.2 ml 10% medium that also includes 1% dimethyl sulfoxide (DMSO). After 20 days of these replenishments, the Huh7-1 cultures are incubated with fresh 1% medium (same as 10% medium except that the serum level is 1%) containing HCV at a multiplicity of infection (MOI) of 0.05 focus forming units (ffu)/cell. The HCV (JFH-lwt Huh7) stock titer is 1.5×10^5 ffu/mL. The next day (day 1 post-infection) and 2 days later (day 3 post-infection) the media are replenished with fresh 1% medium containing the test compounds dissolved in DMSO. On the 5th day of treatment with the compounds, cell lysates are collected for RNA isolation and Real Time-quantitative Reverse Transcription Polymerase Chain Reaction (RT-qPCR) and culture media are collected for cytotoxicity analysis.
Total RNA is isolated from cells by the guanidine thiocyanate method using standard protocols. One μg RNA is used for cDNA synthesis using TaqMan reverse transcription reagents (Applied Biosystems, Foster City, Calif.) followed by real-time PCR using an Applied Biosystems 7300 real-time thermocycler. Thermal cycling consists of initial denaturation of 10 min at 95° C. followed by 40 cycles of denaturation (15 s at 95° C.) and annealing/extension (1 m at 60° C.). HCV and human glyceraldehyde-3-phosphate dehydrogenase (GAPDH) RNA levels are determined relative to a standard curve of serial dilutions of plasmid containing JFH-1 HCV or GAPDH cDNA. The PCR primers used to detect GAPDH and HCV are: GAPDH (NMX002046) 5′-[…]-3′(SEQ ID NO: 16) (sense) and 5′-[…]-3′(SEQ ID NO: 17) (anti-sense) JFH-1 HCV (AB047639) 5′-[…]-3′(SEQ ID NO: 18) (sense) and 5′-[…]-3′(SEQ ID NO: 19) (anti-sense).

SMILES	intracellular HCV RNA levels (FIGS. 1A, 1B, 1C)
COc1cccc(-c2ccccc2NC(=O)C2CCN(Cc3cccc4cccnc34)CC2)c1 [Example 22]	dose dependent decrease in HCV RNA levels
COc1cccc(-c2ccccc2NC(=O)C2CCN(Cc3cc(C)c(O)c(C)c3)CC2)c1 [Example 24]	dose dependent decrease in HCV RNA levels
O=C(Nc1ccc(Oc2ccccc2F)cc1)C1CCN(Cc2cccc3c2OCO3)CC1 [Example 28]	dose dependent decrease in HCV RNA levels

Same assay, conditions: viral titer at 5 μM or 15 μM compared to untreated control

SMILES	HCV Antiviral Activity
COc1cc(CN2CCC(C(=O)Nc3ccc(-c4cccc(C)c4)cc3)CC2)ccc1O [Example 17]	+ (“+” corresponds to ≦60% viral titer at 15 μM)
COc1ccc(CN2CCC(C(=O)Nc3ccc(Oc4ccccc4F)cc3)CC2)c(O)c1 [Example 21]	+++ (“+++” corresponds to ≦30% viral titer at 5 μM)
COc1cccc(-c2ccccc2NC(=O)C2CCN(Cc3cccc4cccnc34)CC2)c1 [Example 22]	+++ (“+++” corresponds to ≦30% viral titer at 5 μM)
COc1ccccc1CN1CCC(C(=O)Nc2ccc(-c3nc4ccccc4[nH]3)cc2)CC1 [Example 23]	+++ (“+++” corresponds to ≦30% viral titer at 5 μM)
COc1cccc(-c2ccccc2NC(=O)C2CCN(Cc3cc(C)c(O)c(C)c3)CC2)c1 [Example 24]	+++ (“+++” corresponds to ≦30% viral titer at 5 μM)
COc1cccc(-c2ccccc2NC(=O)C2CCN(Cc3ccccc3OC)CC2)c1 [Example 25]	++ (“++” corresponds to ≦60% viral titer at 5 μM)
O=C(Nc1cccc(-c2cccc(F)c2)c1)C1CCN(Cc2ccc(O)cc2)CC1 [Example 26]	++ (“++” corresponds to ≦60% viral titer at 5 μM)
CCCCc1nc(CN2CCC(C(=O)Nc3cccc(-c4cccc(F)c4)c3)CC2)c[nH]1 [Example 27]	++ (“++” corresponds to ≦60% viral titer at 5 μM)
O=C(Nc1ccc(Oc2ccccc2F)cc1)C1CCN(Cc2cccc3c2OCO3)CC1 [Example 28]	++ (“++” corresponds to ≦60% viral titer at 5 μM)
O=C(Nc1cccc(-c2cccc(F)c2)c1)C1CCN(Cc2cccc(O)c2)CC1 [Example 29]	+ (“+” corresponds to ≦60% viral titer at 15 μM)
COc1cccc(O)c1CN1CCC(C(=O)Nc2cccc(-c3cccc(F)c3)c2)CC1 [Example 30]	+ (“+” corresponds to ≦60% viral titer at 15 μM)
O=C(Nc1cccc(-c2cccc(Cl)c2)c1)C1CCN(Cc2ccc(O)cc2)CC1 [Example 31]	+ (“+” corresponds to ≦60% viral titer at 15 μM)
COc1cccc(-c2ccccc2NC(=O)C2CCN(Cc3ccc(OC)c(C)c3)CC2)c1 [Example 32]	+ (“+” corresponds to ≦60% viral titer at 15 μM)
COc1cccc(CN2CCC(C(=O)Nc3ccccc3-c3cccc(OC)c3)CC2)c1 [Example 33]	+ (“+” corresponds to ≦60% viral titer at 15 μM)
COc1cccc(-c2ccccc2NC(=O)C2CCN(Cc3ccc(F)cc3OC)CC2)c1 [Example 34]	+ (“+” corresponds to ≦60% viral titer at 15 μM)
O=C(Nc1cccc(-c2cscn2)c1)C1CCN(Cc2cccc(-c3ccco3)c2)CC1 [Example 35]	+ (“+” corresponds to ≦60% viral titer at 15 μM)
COc1cccc(-c2ccccc2NC(=O)C2CCN(CCC(C)c3ccccc3)CC2)c1 (stereo not shown) [Example 36]	+ (“+” corresponds to ≦60% viral titer at 15 μM)
CC(C)n1cc(CN2CCC(C(=O)Nc3cccc(-c4cc5ccccc5[nH]4)c3)CC2)cn1 [Example 38]	+ (“+” corresponds to ≦60% viral titer at 15 μM)
COc1cccc(-c2ccccc2NC(=O)C2CCN(CC(C)(C)C)CC2)c1 [Example 39]	+ (“+” corresponds to ≦60% viral titer at 15 μM)
O=C(Nc1cccc(-c2ccco2)c1)C1CCN(Cc2cccc3cccnc23)CC1 [Example 40]	+ (“+” corresponds to ≦60% viral titer at 15 μM)

SMILES	HCV Antiviral Activity
Cc1nnc(-c2cccc(NC(=O)C3CCN(C(=O)c4ccco4)CC3)c2)s1 [Example 41]	+ (“+” corresponds to ≦60% viral titer at 15 μM)
COc1cc(CN2CCC(C(=O)Nc3cccc(-c4cccc(Cl)c4)c3)CC2)ccc1O [Example 42]	+ (“+” corresponds to ≦60% viral titer at 15 μM)
O=C(Nc1cccc(-c2ccn[nH]2)c1)C1CCN(Cc2cccc3ccccc23)CC1 [Example 43]	− (“−” corresponds to >60% viral titer at 15 μM (highest concentration tested))
Cc1ccc(CN2CCC(C(=O)Nc3cccc(-c4cc5ccccc5[nH]4)c3)CC2)o1 [Example 45]	− (“−” corresponds to >60% viral titer at 15 μM (highest concentration tested))
CSCCCN1CCC(C(=O)Nc2cccc(-c3cc4ccccc4[nH]3)c2)CC1 [Example 46]	− (“−” corresponds to >60% viral titer at 15 μM (highest concentration tested))
O=C(Nc1ccc(-c2nc3ccccc3[nH]2)cc1)C1CCN(Cc2cc3ccccc3[nH]2)CC1 [Example 47]	− (“−” corresponds to >60% viral titer at 15 μM (highest concentration tested))
CCOc1ccc(CN2CCC(C(=O)Nc3ccccc3-c3cccc(OC)c3)CC2)cc1 [Example 48]	− (“−” corresponds to >60% viral titer at 15 μM (highest concentration tested))
O=C(Nc1cccc(-c2ccco2)c1)C1CCN(Cc2nc3ccc(F)cc3[nH]2)CC1 [Example 49]	− (“−” corresponds to >60% viral titer at 15 μM (highest concentration tested))
O=C(Nc1cccc(-c2cccc(Cl)c2)c1)C1CCN(Cc2cccc(O)c2)CC1 [Example 50]	− (“−” corresponds to >60% viral titer at 15 μM (highest concentration tested))
O=C(Nc1cccc(-c2cscn2)c1)C1CCN(C/C=C/c2ccc(F)cc2)CC1 [Example 52]	− (“−” corresponds to >60% viral titer at 15 μM (highest concentration tested))
O=C(Nc1cccc(-c2ccco2)c1)C1CCN(C(=O)CCc2ccco2)CC1 [Example 53]	− (“−” corresponds to >60% viral titer at 15 μM (highest concentration tested))
O=C(Nc1cccc(-c2ccco2)c1)C1CCN(C(=O)c2n[nH]c3c2CCC3)CC1 [Example 54]	− (“−” corresponds to >60% viral titer at 15 μM (highest concentration tested))
COc1ccc(/C=C/CN2CCC(C(=O)Nc3cccc(-c4ccco4)c3)CC2)cc1 [Example 55]	− (“−” corresponds to >60% viral titer at 15 μM (highest concentration tested))
O=C(Nc1cccc(-c2cccc(F)c2)c1)C1CCN(Cc2cccc3c2OCO3)CC1 [Example 56]	− (“−” corresponds to >60% viral titer at 15 μM (highest concentration tested))
COc1cccc(CN2CCC(C(=O)Nc3ccc(Oc4ccccc4F)cc3)CC2)c1O [Example 61]	++ (“++” corresponds to ≦60% viral titer at 5 μM)
COc1cccc(-c2ccccc2NC(=O)C2CCN(Cc3cccc(OC)c3O)CC2)c1 [Example 62]	++ (“++” corresponds to ≦60% viral titer at 5 μM)
COc1cccc(CN2CCC(C(=O)Nc3cccc(-c4cccc(Cl)c4)c3)CC2)c1O [Example 63]	++ (“++” corresponds to ≦60% viral titer at 5 μM)
COc1ccccc1/C=C/CN1CCC(C(=O)Nc2ccc(-n3nc(C)cc3C)cc2)CC1 [Example 66]	+ (“+” corresponds to ≦60% viral titer at 15 μM)
CCc1nc(CN2CCC(C(=O)Nc3cccc(-c4cccc(F)c4)c3)CC2)c(C)[nH]1 [Example 68]	+ (“+” corresponds to ≦60% viral titer at 15 μM)
COc1cccc(-c2cccc(NC(=O)C3CCN(CC=C(C)C)CC3)c2)c1 [Example 69]	++ (“++” corresponds to ≦60% viral titer at 5 μM)
